Results reported in ChEMBL document CHEMBL3045301, “Pharmacophore modeling of some novel indole -diketo acid and coumarin-based derivatives as HIV integrase inhibitors” (Med Chem Res, 2012).
pIC50: −log10 of the molar value.

Molecular target: Human immunodeficiency virus type 1 integrase (Human immunodeficiency virus 1, UniProt Q7ZJM1)
Assay: Inhibition of Human immunodeficiency virus 1 integrase

Sequence of Human immunodeficiency virus type 1 integrase (Q7ZJM1 whole entry): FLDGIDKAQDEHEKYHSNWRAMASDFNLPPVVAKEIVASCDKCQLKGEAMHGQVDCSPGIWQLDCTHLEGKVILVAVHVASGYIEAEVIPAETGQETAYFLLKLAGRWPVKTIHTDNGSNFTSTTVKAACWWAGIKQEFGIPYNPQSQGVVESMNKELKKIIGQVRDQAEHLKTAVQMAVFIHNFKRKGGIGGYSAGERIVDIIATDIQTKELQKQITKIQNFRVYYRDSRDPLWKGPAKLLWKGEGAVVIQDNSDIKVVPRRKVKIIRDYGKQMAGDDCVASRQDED

SMILES | pIC50
Cn1c(C(=O)/C=C(\O)C(=O)O)cc2cc3c(cc21)OCO3 | 5.70
CCn1c(C(=O)/C=C(\O)C(=O)O)cc2cc3c(cc21)OCO3 | 5.30
CCn1c(C(=O)/C=C(\O)C(=O)O)cc2ccccc21 | 5.80
Cn1cc(C(=O)/C=C(\O)C(=O)O)c2ccccc21 | 5.70
O=c1oc2ccccc2c(O)c1C(c1cccs1)c1c(O)c2ccccc2oc1=O | 3.83
O=c1oc2ccccc2c(O)c1C(c1ccc2c(c1)CC=CC2)c1c(O)c2ccccc2oc1=O | 4.80
O=c1oc2cc(O)ccc2c(O)c1C(c1ccc(C(c2c(O)c3ccc(O)cc3oc2=O)c2c(O)c3ccc(O)cc3oc2=O)cc1)c1c(O)c2ccc(O)cc2oc1=O | 5.52
Cn1c(C(=O)/C=C(\O)C(=O)O)cc2ccccc21 | 5.22
O=C(O)/C(O)=C/C(=O)c1cn(Cc2ccccc2)c2ccccc12 | 6.00
O=c1oc2cc(O)ccc2c(O)c1C(c1ccc(CCc2ccccc2)cc1)c1c(O)c2ccc(O)cc2oc1=O | 5.75
O=c1oc2ccccc2c(O)c1C(c1ccc(O)cc1)c1c(O)c2ccccc2oc1=O | 4.13
CN(C)c1ccc(C(c2c(O)c3ccccc3oc2=O)c2c(O)c3ccccc3oc2=O)cc1 | 4.31
O=c1oc2ccccc2c(O)c1C(c1ccc(-c2ccccc2)cc1)c1c(O)c2ccccc2oc1=O | 4.89
O=c1oc2ccccc2c(O)c1C(c1cnc2c(c1)CC=CC2)c1c(O)c2ccccc2oc1=O | 4.64
O=c1oc2ccccc2c(O)c1C(c1ccco1)c1c(O)c2ccccc2oc1=O | 3.88
O=c1oc2cc(O)ccc2c(O)c1C(c1cccnc1)c1c(O)c2ccc(O)cc2oc1=O | 4.60
O=c1oc2cc(O)ccc2c(O)c1C(c1ccccc1)c1c(O)c2ccc(O)cc2oc1=O | 4.65
O=c1oc2ccccc2c(O)c1C(c1ccccc1)c1c(O)c2ccccc2oc1=O | 4.42
O=c1oc2cc(O)ccc2c(O)c1C(c1ccc2c(c1)CC=CC2)c1c(O)c2ccc(O)cc2oc1=O | 5.46

Now from value to molecule:

pIC50 | SMILES
6.00 | O=C(O)/C(O)=C/C(=O)c1cc2ccccc2n1Cc1ccccc1
5.52 | CCn1cc(C(=O)/C=C(\O)C(=O)O)c2cc3c(cc21)OCO3
4.92 | O=c1oc2ccccc2c(O)c1C(c1ccc(OCc2ccccc2)c(OCc2ccccc2)c1)c1c(O)c2ccccc2oc1=O
4.96 | O=c1oc2ccccc2c(O)c1-c1cccc(-c2c(O)c3ccccc3oc2=O)c1
5.52 | Cn1cc(C(=O)/C=C(\O)C(=O)O)c2cc3c(cc21)OCO3
5.52 | CCn1cc(C(=O)/C=C(\O)C(=O)O)c2ccccc21
4.35 | O=c1oc2cc(O)ccc2c(O)c1Cc1c(O)c2ccc(O)cc2oc1=O
5.70 | O=C(O)/C(O)=C/C(=O)c1cc2cc3c(cc2n1Cc1ccccc1)OCO3
5.92 | O=c1oc2ccccc2c(O)c1C(c1cccc(C(c2c(O)c3ccccc3oc2=O)c2c(O)c3ccccc3oc2=O)c1)c1c(O)c2ccccc2oc1=O
4.16 | O=c1oc2ccccc2c(O)c1Cc1ccc(Cc2c(O)c3ccccc3oc2=O)cc1
4.69 | O=c1oc2ccccc2c(O)c1-c1ccccc1-c1c(O)c2ccccc2oc1=O
